Data: ChEMBL document CHEMBL2021885, “Triphenylbutanamines: kinesin spindle protein inhibitors with in vivo antitumor activity” (J Med Chem, 2012)
The source made the active and inactive calls. The calls are words filed in the database; no cut-off is given here.

Legend:
[1] = Turbidimetric solubility of the compound at pH 6; assay type: physicochemical; settings: buffer
[2] = biological target: T1, Kinesin-like protein KIF7 (Homo sapiens) (UniProt Q2M1P5); assay: Inhibition of Kif7 ATPase activity
T1 sequence (whole entry): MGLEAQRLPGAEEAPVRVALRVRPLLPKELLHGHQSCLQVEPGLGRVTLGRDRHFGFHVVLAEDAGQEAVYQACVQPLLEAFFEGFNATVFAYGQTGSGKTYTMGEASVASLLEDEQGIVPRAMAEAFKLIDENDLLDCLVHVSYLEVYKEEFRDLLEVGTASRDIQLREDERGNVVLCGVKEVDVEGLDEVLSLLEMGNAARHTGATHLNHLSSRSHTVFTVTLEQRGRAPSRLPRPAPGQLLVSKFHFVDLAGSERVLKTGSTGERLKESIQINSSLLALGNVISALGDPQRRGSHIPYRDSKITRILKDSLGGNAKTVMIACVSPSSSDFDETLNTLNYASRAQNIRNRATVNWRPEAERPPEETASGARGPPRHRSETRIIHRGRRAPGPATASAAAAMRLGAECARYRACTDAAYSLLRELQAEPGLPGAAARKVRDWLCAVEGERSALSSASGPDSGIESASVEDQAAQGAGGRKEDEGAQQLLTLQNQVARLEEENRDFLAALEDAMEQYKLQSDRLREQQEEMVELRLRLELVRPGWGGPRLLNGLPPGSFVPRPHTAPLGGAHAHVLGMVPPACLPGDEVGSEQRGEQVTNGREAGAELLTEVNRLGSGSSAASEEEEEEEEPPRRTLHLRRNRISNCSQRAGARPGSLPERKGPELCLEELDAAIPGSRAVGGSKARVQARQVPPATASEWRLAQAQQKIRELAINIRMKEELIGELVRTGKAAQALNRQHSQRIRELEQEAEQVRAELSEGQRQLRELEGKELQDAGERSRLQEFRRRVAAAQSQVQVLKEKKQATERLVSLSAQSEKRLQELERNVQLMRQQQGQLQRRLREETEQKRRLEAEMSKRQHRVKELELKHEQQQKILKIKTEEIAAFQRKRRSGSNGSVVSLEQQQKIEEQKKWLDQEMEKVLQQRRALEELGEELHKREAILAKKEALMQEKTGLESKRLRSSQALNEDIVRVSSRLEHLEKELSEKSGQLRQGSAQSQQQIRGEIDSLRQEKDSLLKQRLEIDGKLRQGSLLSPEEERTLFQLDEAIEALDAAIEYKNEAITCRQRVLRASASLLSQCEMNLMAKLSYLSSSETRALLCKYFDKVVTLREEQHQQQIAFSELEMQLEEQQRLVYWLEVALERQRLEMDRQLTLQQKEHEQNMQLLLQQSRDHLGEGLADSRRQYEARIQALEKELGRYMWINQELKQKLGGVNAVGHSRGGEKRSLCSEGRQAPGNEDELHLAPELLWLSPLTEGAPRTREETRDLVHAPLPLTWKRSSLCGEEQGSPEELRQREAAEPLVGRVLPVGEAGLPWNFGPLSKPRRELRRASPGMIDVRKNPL

[3] = biological target: T2, Kinesin-like protein KIF20A (Homo sapiens) (UniProt O95235); assay: Inhibition of MT-stimulated MKLP2 ATPase activity
T2 sequence (whole entry): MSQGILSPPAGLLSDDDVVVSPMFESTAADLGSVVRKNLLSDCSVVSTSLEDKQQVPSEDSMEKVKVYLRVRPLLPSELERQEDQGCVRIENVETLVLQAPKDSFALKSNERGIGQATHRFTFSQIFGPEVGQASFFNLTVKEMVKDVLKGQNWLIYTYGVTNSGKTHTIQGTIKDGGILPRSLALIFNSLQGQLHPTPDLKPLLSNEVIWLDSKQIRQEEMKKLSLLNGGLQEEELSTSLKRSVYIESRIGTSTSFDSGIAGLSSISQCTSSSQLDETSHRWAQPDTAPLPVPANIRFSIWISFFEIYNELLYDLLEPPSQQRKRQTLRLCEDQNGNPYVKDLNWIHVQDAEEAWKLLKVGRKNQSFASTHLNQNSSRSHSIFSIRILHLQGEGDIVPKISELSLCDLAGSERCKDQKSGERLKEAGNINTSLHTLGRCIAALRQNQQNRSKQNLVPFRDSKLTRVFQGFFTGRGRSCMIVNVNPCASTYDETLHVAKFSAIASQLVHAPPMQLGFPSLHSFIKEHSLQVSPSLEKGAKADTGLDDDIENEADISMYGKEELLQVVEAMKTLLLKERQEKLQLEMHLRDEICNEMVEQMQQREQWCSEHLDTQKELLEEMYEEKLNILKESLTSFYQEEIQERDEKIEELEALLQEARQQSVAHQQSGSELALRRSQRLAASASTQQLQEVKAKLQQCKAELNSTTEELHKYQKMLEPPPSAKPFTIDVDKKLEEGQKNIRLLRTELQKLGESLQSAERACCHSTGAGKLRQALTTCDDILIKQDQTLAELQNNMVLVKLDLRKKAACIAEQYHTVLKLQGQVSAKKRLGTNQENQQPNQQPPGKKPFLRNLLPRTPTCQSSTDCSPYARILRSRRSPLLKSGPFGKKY

[4] = biological target: Kinesin-like protein KIF20B (Homo sapiens) (UniProt Q96Q89); assay: Inhibition of MPP1 ATPase activity
Chain of Kinesin-like protein KIF20B (Homo sapiens) (Q96Q89 whole entry): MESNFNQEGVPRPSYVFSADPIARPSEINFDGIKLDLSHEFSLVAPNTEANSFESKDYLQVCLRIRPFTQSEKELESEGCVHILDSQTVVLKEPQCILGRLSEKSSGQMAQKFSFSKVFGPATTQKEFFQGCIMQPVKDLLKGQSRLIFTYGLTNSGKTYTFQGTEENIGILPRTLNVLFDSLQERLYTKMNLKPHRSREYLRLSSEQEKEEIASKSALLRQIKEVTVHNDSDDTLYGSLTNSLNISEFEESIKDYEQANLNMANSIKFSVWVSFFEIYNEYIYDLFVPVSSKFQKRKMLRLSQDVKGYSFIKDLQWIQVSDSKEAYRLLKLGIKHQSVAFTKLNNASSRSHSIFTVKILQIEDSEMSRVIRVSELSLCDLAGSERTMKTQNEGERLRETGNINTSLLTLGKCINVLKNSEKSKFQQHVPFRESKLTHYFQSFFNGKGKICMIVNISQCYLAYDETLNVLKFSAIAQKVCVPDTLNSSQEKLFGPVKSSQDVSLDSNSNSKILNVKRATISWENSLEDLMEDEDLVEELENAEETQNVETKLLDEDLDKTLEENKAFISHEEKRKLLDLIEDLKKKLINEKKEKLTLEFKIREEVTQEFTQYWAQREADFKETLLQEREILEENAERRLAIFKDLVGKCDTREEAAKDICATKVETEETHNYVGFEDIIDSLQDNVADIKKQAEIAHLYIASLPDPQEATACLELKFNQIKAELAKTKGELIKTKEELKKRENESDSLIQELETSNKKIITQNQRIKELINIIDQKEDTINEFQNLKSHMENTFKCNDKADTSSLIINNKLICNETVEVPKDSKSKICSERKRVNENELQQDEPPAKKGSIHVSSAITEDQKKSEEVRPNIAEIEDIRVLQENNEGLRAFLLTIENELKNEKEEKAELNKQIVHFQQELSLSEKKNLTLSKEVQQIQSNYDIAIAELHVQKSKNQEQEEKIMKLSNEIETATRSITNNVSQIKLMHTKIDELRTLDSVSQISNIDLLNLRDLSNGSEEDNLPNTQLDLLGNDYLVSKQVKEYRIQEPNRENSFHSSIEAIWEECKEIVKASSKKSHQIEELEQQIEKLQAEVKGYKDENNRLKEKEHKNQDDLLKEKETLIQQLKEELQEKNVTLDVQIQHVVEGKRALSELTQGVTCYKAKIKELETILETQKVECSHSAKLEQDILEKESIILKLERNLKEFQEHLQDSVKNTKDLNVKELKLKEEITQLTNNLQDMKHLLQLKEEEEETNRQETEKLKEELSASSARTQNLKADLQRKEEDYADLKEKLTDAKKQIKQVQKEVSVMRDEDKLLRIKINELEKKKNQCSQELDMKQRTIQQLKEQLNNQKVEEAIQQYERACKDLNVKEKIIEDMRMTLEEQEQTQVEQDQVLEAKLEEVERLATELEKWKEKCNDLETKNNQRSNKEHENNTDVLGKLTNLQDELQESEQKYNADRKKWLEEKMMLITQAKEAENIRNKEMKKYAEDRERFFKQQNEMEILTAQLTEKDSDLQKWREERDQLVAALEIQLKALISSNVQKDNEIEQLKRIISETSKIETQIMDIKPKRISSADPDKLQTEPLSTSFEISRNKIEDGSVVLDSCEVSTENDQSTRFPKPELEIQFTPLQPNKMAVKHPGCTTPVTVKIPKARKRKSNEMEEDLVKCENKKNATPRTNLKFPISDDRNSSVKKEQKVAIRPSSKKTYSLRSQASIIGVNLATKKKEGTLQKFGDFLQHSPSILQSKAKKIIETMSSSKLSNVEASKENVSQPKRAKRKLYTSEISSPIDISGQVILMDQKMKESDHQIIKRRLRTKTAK

[5] = biological target: T1, Kinesin-like protein KIF7 (Homo sapiens); assay: Inhibition of MT-stimulated Kif7 ATPase activity
[6] = Turbidimetric solubility of the compound at pH 2; assay type: physicochemical; settings: buffer

Cc1cccc(C(CCC(N)C(=O)O)(c2ccccc2)c2ccccc2)c1 (racemic)
solubility kinetic [1]: > 100 µM | inhibition [2]: inactive | inhibition [3]: inactive | inhibition [4]: inactive | inhibition [5]: inactive | solubility kinetic [6]: > 100 µM
